Patent EP0309566B1, “STLV-III-RELATED POLYPEPTIDES, DIAGNOSTIC SYSTEMS AND ASSAY METHODS” (JOHNSON AND JOHNSON, priority 1987, dated 1994)

Assays:
HIV-1 antibodies [1] = experiment: ELISA of serum panels: E8 assay (peptide (II) as solid phase antigen, Procedure #1) compared with commercial viral lysate kits; type: binding, human; set-up: key: +: antibody-positive; antibody-negative; conditions: E8 absorbance cutoff 0.104
Description: (§1) • (1) coat ELISA plate with peptide - 1ug/50ul/well in 0.1M NaHCO₃, pH 9; • (2) let plates dry overnight uncovered at 37°C; then wash with PBS; • (3) block plates with 300ul/well of blocking buffer (5% NCS-PBS) for 2 hrs. at 37°C; • (4) shake out blocking buffer and drain well; • (5) add 50ul/well test antiserum (first antibody) for 30 to 120 minutes at 37°C. (If the antiserum is to be diluted, use T-wash.) Dilutions of 1:2 to 1:100 have been used; • (6) shake out test antisera and wash plate six times with PBS-Tween20; • (7) add 100ul/well of labeled specific binding agent in the form of a enzyme-labeled second antibody diluted 1:4000 with T-wash. Maintain 30 to 120 minutes at 37°C; • (8) shake out any unreacted second antibody and wash plate six times with PBS-Tween20; • (9) add 100ul/well OPD substrate (or 5ul ABTS solution) for 20 minutes at RT; • (10) add 50ul/well of 4N H₂SO₄ to stop OPD reaction (or 100ul/well of 1% SDS for ABTS reaction); • (11) read plate on an MR 500 Microplate ELISA plate reader. (490nm for OPD or 405 nm for ABTS). […]
(§2) The ELISA kits described in Example 4A made with peptide (II) were evaluated against a panel of sera comprising sera from normal subjects, patients with disorders or diseases unrelated to AIDS, known AIDS patients, known ARC patients, and patients whose diagnosis is unknown but who are antibody-positive for […] antibodies by commercial tests or by Western blot assay. […]

HIV-1 antibodies [2] = experiment: as above; type: binding, human; conditions: 200 normal sera; S.D. 0.017
Description: as §1, with “reader.” for “reader. (490nm for OPD or 405 nm for ABTS).”
as §2

antibodies to HIV-1 [3] = experiment: E8 peptide competition (blocking) assay: serum mixed with peptide (II), peptide (II) as solid phase antigen; type: binding, human; conditions: last seven samples of Table 7 (antibody positive sera)
Description: Presented in Table 7 below are data relating to the assay of various patient sera. In addition to the usual assay with peptide (II) as described in Example 4-Procedure A, each serum was assayed against peptide (II) after mixing the serum sample with an effective blocking amount of the peptide (II). Also included in the Table are the results of assaying each sample with commercially available kits.
Furthermore, even samples incorrectly identified as positive by the E8 assay are correctly identified as negative by the E8 peptide competition assay. […] The last seven samples assayed as shown in Table 7 are positive for antibody by both the E8 assay and commercially available assays (with the exception of two false negatives using the Abbott kit) and by the more tedious and time consuming Western blot assay.

HIV-1 antibodies [4] = experiment: ELISA of serum panels: E8 assay (peptide (II) as solid phase antigen, Procedure #1) compared with commercial viral lysate kits; type: binding, human; set-up: key: (-) = False Negatives
Description: as §1, §2

HIV-1 antibodies [5] = experiment: as above; type: binding, human; set-up: key: (+)=False Positives; conditions: 6 samples; NPC/NON-AIDS
Description: as §1, with “reader.” for “reader. (490nm for OPD or 405 nm for ABTS).”
as §2

antibodies against HIV-2 = experiment: ELISA with STLV-III polypeptides p80 and p81, alone and in combination; type: binding, human; conditions: two sera containing high titers of antibodies against HIV-2, diluted 1:10; 490nm
Description: Preliminary studies using two sera containing high titers of antibodies against HIV-2 were performed by ELISA using each of p80 and p81 alone and in combination. One hundred microliters (ul) of 0.01M NaHCO₃, pH 9.6, containing 1 microgram (ug) of either p80 or p81 or a combination (admixture) of 1 ug of p80 and 1 ug of p81 were admixed into the wells of Immunolon II microtiter plates (Dynatech, Alexandria, VA). The plates were then maintained for about 16 hours at 4 degrees C to permit the polypeptides to adsorb onto (coat) the walls of the wells. After removing the polypeptide coating solution by shaking, 300 ul of PBS containing 1% bovine serum albumin (BSA), 5mM benzamidine, 10 kilounits Aprotinin, 10ug/ml Trypsin Inhibitor, 10mM EACA, 0.5mM PMSF, 2mM EDTA and 10% glycerol were admixed into each well to block excess protein binding sites. […]
Two hundred ul of OPD substrate were then admixed into each well to form a developing-reaction admixture. After maintaining the developing-reaction admixture for 30 minutes at about 20 degrees C, 50 ul of 4N H₂SO₄ were admixed into each well to stop the developing-reaction, and the resulting solutions were assayed for absorbance at 490nm using a microtiter plate reader.

24 sera = experiment: Comparison of peptide p80 based and peptide p81 based ELISA, 24 sera; type: binding
Description: The absorbance values obtained for each of 24 sera in a peptide p80 based ELISA were divided by those obtained in a peptide p81 based ELISA. The resulting absorbance value ratios are shown in ranked order in Table 14.

antibodies to HIV-1 [6] = experiment: Competition ELISA, admixed formula (III) and (IV) peptides as solid phase antigen (Example 4A); type: binding, human
Description: (§3) • (1) coat ELISA plate with peptide - 1ug/50ul/well in 0.1M NaHCO₃, pH 9; • (2) let plates dry overnight uncovered at 37°C; then wash with PBS; • (3) block plates with 300ul/well of blocking buffer (5% NCS-PBS) for 2 hrs. at 37°C; • (4) shake out blocking buffer and drain well; • (5) add 50ul/well test antiserum (first antibody) for 30 to 120 minutes at 37°C. (If the antiserum is to be diluted, use T-wash.) Dilutions of 1:2 to 1:100 have been used; • (6) shake out test antisera and wash plate six times with PBS-Tween20; • (7) add 100ul/well of labeled specific binding agent in the form of a enzyme-labeled second antibody diluted 1:4000 with T-wash. Maintain 30 to 120 minutes at 37°C; • (8) shake out any unreacted second antibody and wash plate six times with PBS-Tween20; • (9) add 100ul/well OPD substrate (or 5ul ABTS solution) for 20 minutes at RT; • (10) add 50ul/well of 4N H₂SO₄ to stop OPD reaction (or 100ul/well of 1% SDS for ABTS reaction); • (11) read plate on an MR 500 Microplate ELISA plate reader. (490nm for OPD or 405 nm for ABTS).
Further evidence that more than one epitope is present in formula (III) and (IV) peptides can be deduced from absorbance values obtained from competition studies, the results of an example of which are shown in Table 11. In this study, admixed formula (III) and (IV) peptides were applied to a microtiter plate as the immobilized, solid phase antigen and an ELISA assay (Example 4A) was performed under five different conditions: without competition, or competition with excess formula (III) peptide, formula (IV) peptide, an admixture of both peptides [(III)+(IV)], or with a heterologous peptide. The competition was performed by adding the appropriate peptide(s) to the diluted serum just before adding the serum sample to the microtiter well.

antibodies to HIV-1 [7] = experiment: ELISA with peptides (III) and (IV), AIDS/ARC patient sera (Procedure 1); type: binding, human
Description: as §3
Additional AIDS/ARC patient sera were assayed with ELISA assays employing the two highly reactive peptides of formulas (III) and (IV) (Example IV-Procedure 1).

antibodies to HIV-1 [8] = experiment: Competition ELISA, formula (I) peptide as solid phase antigen (Example 4A); type: binding, human
Description: as §3

## IWGCSGKLICTTAVP [peptide (II), solid phase antigen of the "E8" assay]
HIV-1 antibodies [1]; 1 sample, Normal, Sample ID 749
  Assay result: -
HIV-1 antibodies [1]; 1 sample, Normal, Sample ID 2846
  Assay result: +
HIV-1 antibodies [1]; 198 samples, Diagnosis Normal
  Assay result: -
HIV-1 antibodies [2]
  Mean Absorbance of Normals: 0.016
Antibodies to HIV-1 [3]
  reactivity of sera with peptide (II) as solid phase antigen after mixing each serum with peptide (II): effectively blocked
HIV-1 antibodies [4]; 1 sample, AIDS, Sample I.D. 653
  Assay result: (-)
HIV-1 antibodies [4]; 2 samples, AIDS, Sample I.D. 533,3621
  Assay result: (-)
HIV-1 antibodies [4]; 2 samples, ARC, Sample I.D. 512,529
  Assay result: (-)
HIV-1 antibodies [5]
  Assay result: (+)

## AWCAFRQVCHTTVPWPNAS [p81]
Antibodies against HIV-2
  absorbance values: about 0.4
24 sera; Serum No. 3541
  absorbance value: 0.025
24 sera; Serum No. 3616
  absorbance value: 0.047
24 sera; Serum No. 3743
  absorbance value: 0.040
24 sera; Serum No. 3923
  absorbance value: 0.067
24 sera; Serum No. 3942
  absorbance value: 0.051
24 sera; Serum No. 5160
  absorbance value: 0.236
24 sera; Serum No. 5182
  absorbance value: 0.102
24 sera; Serum No. 5727
  absorbance value: 0.563
24 sera; Serum No. 5740
  absorbance value: 0.043
24 sera; Serum No. 6598
  absorbance value: 0.205
24 sera; Serum No. 6599
  absorbance value: 0.232
24 sera; Serum No. 6600
  absorbance value: 0.306
24 sera; Serum No. 6601
  absorbance value: 0.138
24 sera; Serum No. 6602
  absorbance value: 0.001
24 sera; Serum No. 6603
  absorbance value: 0.421
24 sera; Serum No. 6604
  absorbance value: 0.400
24 sera; Serum No. 6631
  absorbance value: 0.285
24 sera; Serum No. 6650
  absorbance value: 0.034
24 sera; Serum No. 6661
  absorbance value: 0.160
24 sera; Serum No. 6665
  absorbance value: 0.053
24 sera; Serum No. 6674
  absorbance value: 0.258
24 sera; Serum No. 6683
  absorbance value: 0.489
24 sera; Serum No. 6698
  absorbance value: 0.022
24 sera; Serum No. 6877
  absorbance value: 0.008

## IWGCSGKLICTTAVPWNAS [peptide (III)]
Antibodies to HIV-1 [6]; sample 3412, unblocked 1.450
  absorbance with competing peptide: 0.113
Antibodies to HIV-1 [6]; sample 3413, unblocked >2.00
  absorbance with competing peptide: 0.381
Antibodies to HIV-1 [6]; sample 3416, unblocked >2.00
  absorbance with competing peptide: 1.811
Antibodies to HIV-1 [6]; sample 3544, unblocked 1.810
  absorbance with competing peptide: 0.876
Antibodies to HIV-1 [6]; sample 3575, unblocked 1.267
  absorbance with competing peptide: 0.982
Antibodies to HIV-1 [6]; sample 3693, unblocked 0.340
  absorbance with competing peptide: 0.103
Antibodies to HIV-1 [6]; sample 3790, unblocked 1.558
  absorbance with competing peptide: 1.320
Antibodies to HIV-1 [7]; serum sample 0509 (group B)
  absorbance values: 0.403
Antibodies to HIV-1 [7]; serum sample 0649 (group A)
  absorbance values: 1.756
Antibodies to HIV-1 [7]; serum sample 0653 (group B)
  absorbance values: 0.111
Antibodies to HIV-1 [7]; serum sample 0662 (group B)
  absorbance values: 0.301
Antibodies to HIV-1 [7]; serum sample 3362 (group A)
  absorbance values: 0.503
Antibodies to HIV-1 [7]; serum sample 3411 (group C)
  absorbance values: >2.00
Antibodies to HIV-1 [7]; serum sample 3412 (group A)
  absorbance values: >2.00
Antibodies to HIV-1 [7]; serum sample 3413 (group C)
  absorbance values: >2.00
Antibodies to HIV-1 [7]; serum sample 3414 (group C)
  absorbance values: 1.453
Antibodies to HIV-1 [7]; serum sample 3416 (group C)
  absorbance values: 1.914
Antibodies to HIV-1 [7]; serum sample 3456 (group C)
  absorbance values: 1.670
Antibodies to HIV-1 [7]; serum sample 3555 (group B)
  absorbance values: 0.428
Antibodies to HIV-1 [7]; serum sample 3575 (group B)
  absorbance values: 0.350
Antibodies to HIV-1 [7]; serum sample 3666 (group C)
  absorbance values: >2.00
Antibodies to HIV-1 [7]; serum sample 3693 (group A)
  absorbance values: 0.559
Antibodies to HIV-1 [7]; serum sample 3722 (group A)
  absorbance values: 0.620
Antibodies to HIV-1 [7]; serum sample 3744 (group B)
  absorbance values: 0.311
Antibodies to HIV-1 [7]; serum sample 3790 (group B)
  absorbance values: 0.224
Antibodies to HIV-1 [8]; result in words
  competition with formula (I) peptide on the plate: competed very effectively
Antibodies to HIV-1 [8]; sample 013, unblocked 1.177
  absorbance with competing peptide: 0.046
Antibodies to HIV-1 [8]; sample 014, unblocked 0.383
  absorbance with competing peptide: 0.067

## CSGKLIC [(I)]
Antibodies to HIV-1 [8]; sample 013, unblocked 1.177
  absorbance with competing peptide: 0.038
Antibodies to HIV-1 [8]; sample 014, unblocked 0.383
  absorbance with competing peptide: 0.050
